According to US20150030583A1, “Methods of Treating Serosal Cancer” (SLOAN KETTERING INSTITUTE FOR CANCER RESEARCH, priority 2011, published 2015):
Counter-ions that a name gives are not always drawn. Like-named read-outs stand apart in the source and are kept apart here.

Tested on: Ovcar3-GTL catenae
Experiment: Ovcar3-GTL catena drug sensitivity / proliferation screen (alamarBlue, 384-well)
[1] = ratio of IC50 day 6 to day 1, Ovcar3-GTL catenae
[2] = read-out: IC50 (μM) Addition on Day 1; Ovcar3-GTL catenae; compound added one day after seeding (cells predominantly lacking a glycocalyx)
[3] = read-out: IC50 (μM) Addition on Day 6; Ovcar3-GTL catenae; compound added six days after seeding (established or substantial glycocalyx)
[4] = read-out: IC50 (μM) No coat, pathway-specific inhibitors; catena cells without glycocalyx coat
[5] = read-out: IC50 (μM) With coat, pathway-specific inhibitors; catena cells with glycocalyx coat
[6] = increased resistance of catena cells with glycocalyx coat versus no coat
[7] = read-out: IC50 (μM) With coat; pathway-specific inhibitors; catena cells with glycocalyx coat
[8] = 24 h, read-out: IC50 (μM) Addition on Day 1, Ovcar3-GTL catenae; compound added one day after seeding (cells predominantly lacking a glycocalyx)
[9] = 144 h, read-out: IC50 (μM) Addition on Day 6, Ovcar3-GTL catenae; compound added six days after seeding (established or substantial glycocalyx)

## C=CCNC1=C2C[C@@H](C)C[C@H](OC)[C@H](O)[C@@H](C)/C=C(\C)[C@H](OC(N)=O)[C@@H](OC)/C=C\C=C(/C)C(=O)NC(=CC1=O)C2=O [17AAG]
[1]
  Increase in Resistance Day6/Day 1: 33 fold
[2]
  IC50: 0.012 µM
[3]
  IC50: 0.4 µM

## C[C@]1(c2nc3c(C(N)=O)cccc3[nH]2)CCCN1 [ABT-888 (Veliparib), Veliparib]
[4]
  IC50: 13.4 µM
[5]
  IC50: > 25 µM

## Cc1ccc(C(=O)Nc2ccc(CN3CCN(C)CC3)c(C(F)(F)F)c2)cc1C#Cc1cnc2cccnn12 [AP24534 (Ponatinib), Ponatinib]
[6]
  Fold resistance: 16 fold
read-out: IC50 (μM) No coat
  IC50: 0.78 µM
read-out: IC50 (μM) With coat
  IC50: 13.4 µM

## COc1cc2nccc(Oc3ccc(NC(=O)Nc4cc(C)on4)c(Cl)c3)c2cc1OC [AV-951 (Tivozanib), Tivozanib]
[4]
  IC50: 13.4 µM
[5]
  IC50: > 25 µM

## CNC(=O)c1cc(Oc2ccc(NC(=O)Nc3ccc(Cl)c(C(F)(F)F)c3)c(F)c2)ccn1 [BAY 73-4506 (Regorafenib), Regorafenib]
[4]
  IC50: 13.4 µM
[5]
  IC50: 13.4 µM

## Cn1c(=O)n(-c2ccc(C(C)(C)C#N)cc2)c2c3cc(-c4cnc5ccccc5c4)ccc3ncc21 [BEZ235 (NVP-BEZ235)]
[4]
  IC50: 0.05 µM
[5]
  IC50: > 25 µM

## CC[C@@H]1C(=O)N(C)c2cnc(Nc3ccc(C(=O)NC4CCN(C)CC4)cc3OC)nc2N1C1CCCC1 [BI 2536]
read-out: IC50 (μM) No coat
  IC50: < 0.001 µM
read-out: IC50 (μM) With coat
  IC50: 13.4 µM

## COC(=O)c1ccc2c(c1)NC(=O)/C2=C(\Nc1ccc(N(C)C(=O)CN2CCN(C)CC2)cc1)c1ccccc1 [BIBF1120 (Vargatef)]
[4]
  IC50: 13.4 µM
[5]
  IC50: 13.4 µM

## CN(C)C/C=C/C(=O)Nc1cc2c(Nc3ccc(F)c(Cl)c3)ncnc2cc1O[C@H]1CCOC1 [BIBW2992 (Tovok)]
[6]
  Fold resistance: 4 fold
[4]
  IC50: 3.14 µM
[5]
  IC50: 13.4 µM

## CN1CCN(c2ccc3nc(-c4c(N)c5c(F)cccc5[nH]c4=O)[nH]c3c2)CC1 [CHIR-258 (Dovitinib), Dovitinib]
[6]
  Fold resistance: 4 fold
[4]
  IC50: 3.14 µM
[5]
  IC50: 13.4 µM

## O=C(NOCC1CC1)c1ccc(F)c(F)c1Nc1ccc(I)cc1Cl [CI-1040 (PD184352)]
[4]
  IC50: > 25 µM
[5]
  IC50: > 25 µM

## C/C(=C\c1csc(C)n1)[C@@H]1C[C@@H]2O[C@]2(C)CCC[C@H](C)[C@H](O)[C@@H](C)C(=O)C(C)(C)[C@@H](O)CC(=O)O1 [Epo-B]
[1]
  Increase in Resistance Day6/Day 1: 4,000 fold
[2]
  IC50: 0.025 µM
[3]
  IC50: > 100 µM

## CS(=O)(=O)c1ccc(C(=O)Nc2ccc(Cl)c(-c3ccccn3)c2)c(Cl)c1 [GDC-0449 (Vismodegib), Vismodegib]
[4]
  IC50: > 25 µM
[5]
  IC50: > 25 µM

## OCCn1cc(-c2ccc3c(c2)CC/C3=N\O)c(-c2ccncc2)n1 [GDC-0879]
[4]
  IC50: > 25 µM
[5]
  IC50: > 25 µM

## CS(=O)(=O)N1CCN(Cc2cc3nc(-c4cccc5[nH]ncc45)nc(N4CCOCC4)c3s2)CC1 [GDC-0941]
[6]
  Fold resistance: >8 fold
[4]
  IC50: 3.14 µM
[5]
  IC50: > 25 µM

## CCc1cc(Nc2nccc(-c3c(-c4ccc(OC)c(C(=O)Nc5c(F)cccc5F)c4)nc4ccccn34)n2)c(OC)cc1N1CCC(N2CCN(S(C)(=O)=O)CC2)CC1 [GSK1904529A]
[4]
  IC50: > 25 µM
[7]
  IC50: > 25 µM

## Cn1cc(-c2ccc3nnc(C(F)(F)c4ccc5ncccc5c4)n3n2)cn1 [JNJ-38877605]
[6]
  Fold resistance: >8 fold
[4]
  IC50: 3.14 µM
[7]
  IC50: > 25 µM

## O=c1cc(-c2cccc3c2Sc2ccccc2S3)oc(N2CCOCC2)c1 [KU-55933]
[4]
  IC50: 13.4 µM
[5]
  IC50: 13.4 µM

## O=C(/C=C/c1ccc(CN(CCO)CCc2c[nH]c3ccccc23)cc1)NO [LAQ824 (NVP-LAQ824, Dacinostat), Dacinostat]
[6]
  Fold resistance: 16 fold
[4]
  IC50: 0.01 µM
[5]
  IC50: < 0.2 µM
[7]
  IC50: 0.2 µM

## Cc1[nH]c2ccccc2c1CCNCc1ccc(/C=C/C(=O)NO)cc1 [LBH-589 (Panobinostat), Panobinostat]
[6]
  Fold resistance: 4 fold
[4]
  IC50: 0.01 µM
[7]
  IC50: 0.05 µM

## O=c1cc(N2CCOCC2)oc2c(-c3ccccc3)cccc12 [LY294002]
[8]
  IC50: 25 µM
[9]
  IC50: > 100 µM
[1]
  Increase in Resistance Day6/Day 1: 4 fold

## Nc1cccc2c1CN(C1CCC(=O)NC1=O)C2=O (stereo not shown) [Lenalidomide]
[4]
  IC50: > 25 µM
[5]
  IC50: > 25 µM

## COCCNCc1ccc(-c2cc3nccc(Oc4ccc(NC(=S)NC(=O)Cc5ccc(F)cc5)cc4F)c3s2)nc1 [MGCD-265]
[6]
  Fold resistance: >8 fold
[4]
  IC50: 3.14 µM
[5]
  IC50: > 25 µM

## NC1(c2ccc(-c3nc4ccn5c(=O)[nH]nc5c4cc3-c3ccccc3)cc2)CCC1 [MK-2206]
[6]
  Fold resistance: 4 fold
[4]
  IC50: 3.14 µM
[5]
  IC50: 13.4 µM

## Cc1ccc(NC(=O)c2ccc(CN3CCN(C)CC3)cc2)cc1Nc1nc(-c2cccnc2)cs1 [Masitinib (AB1010), Masitinib]
[4]
  IC50: 13.4 µM
[5]
  IC50: 13.4 µM

## CC1(C)CNc2cc(NC(=O)c3cccnc3NCc3ccncc3)ccc21 [Motesanib Diphosphate (AMG-706), Motesanib Diphosphate]
[4]
  IC50: > 25 µM
[5]
  IC50: > 25 µM

## CCNC(=O)c1noc(-c2cc(C(C)C)c(O)cc2O)c1-c1ccc(CN2CCOCC2)cc1 [NVP-AUY922]
[6]
  Fold resistance: 24 fold

## NCC(=O)Nc1ccc(-n2nc(C(F)(F)F)cc2-c2ccc3c(ccc4ccccc43)c2)cc1 [OSU-03012]
[6]
  Fold resistance: 4 fold
[4]
  IC50: 3.14 µM
[5]
  IC50: 13.4 µM

## O=C(NOC[C@H](O)CO)c1ccc(F)c(F)c1Nc1ccc(I)cc1F [PD0325901]
read-out: IC50 (μM) No coat
  IC50: 0.2 µM
read-out: IC50 (μM) With coat
  IC50: > 25 µM

## CC(=O)c1c(C)c2cnc(Nc3ccc(N4CCNCC4)cn3)nc2n(C2CCCC2)c1=O [PD-0332991]
[8]
  IC50: 0.6 µM
[9]
  IC50: 50 µM
[1]
  Increase in Resistance Day6/Day 1: 83 fold
[4]
  IC50: 13.4 µM
[5]
  IC50: 13.4 µM

## C[C@@H](Oc1cc(-c2cnn(C3CCNCC3)c2)cnc1N)c1c(Cl)ccc(F)c1Cl [PF-02341066, Crizotinib]
[8]
  IC50: 0.8 µM
[9]
  IC50: 25 µM
[6]
  Fold resistance: 16 fold
[1]
  Increase in Resistance Day6/Day 1: 31 fold
[4]
  IC50: 0.78 µM
[5]
  IC50: 13.4 µM

## OCCn1cc(-c2cnc3nnn(Cc4ccc5ncccc5c4)c3n2)cn1 [PF-04217903]
[4]
  IC50: > 25 µM
[7]
  IC50: > 25 µM

## Cc1[nH]c(/C=C2\C(=O)Nc3ccc(S(=O)(=O)Cc4c(Cl)cccc4Cl)cc32)c(C)c1C(=O)N1CCC[C@@H]1CN1CCCC1 [PHA-665752]
[6]
  Fold resistance: 1 fold
[4]
  IC50: 3.14 µM
[5]
  IC50: 3.14 µM

## Oc1cccc(-c2nc(N3CCOCC3)c3oc4ncccc4c3n2)c1 [PI-103]
[6]
  Fold resistance: 16 fold
read-out: IC50 (μM) No coat
  IC50: 0.78 µM
read-out: IC50 (μM) With coat
  IC50: 13.4 µM

## Cc1ccc(Nc2nccc(N(C)c3ccc4c(C)n(C)nc4c3)n2)cc1S(N)(=O)=O [Pazopanib Hydrochloride]
[4]
  IC50: > 25 µM
[5]
  IC50: > 25 µM

## CCCCCCCCCCCCCCCCCCOP(=O)([O-])OC1CC[N+](C)(C)CC1 [Perifosine]
[6]
  Fold resistance: 4 fold
[4]
  IC50: 3.14 µM
[5]
  IC50: 13.4 µM

## Cn1cc(C2=C(c3ccc(Cl)cc3Cl)C(=O)NC2=O)c2ccccc21 [SB 216763]
[4]
  IC50: > 25 µM
[5]
  IC50: > 25 µM

## Cn1cc(-c2ccc3nnc(Sc4ccc5ncccc5c4)n3n2)cn1 [SGX-523]
[6]
  Fold resistance: >8 fold
[4]
  IC50: 3.14 µM
[5]
  IC50: > 25 µM

## Cc1[nH]c(/C=C2\C(=O)Nc3ccc(S(=O)(=O)N(C)c4cccc(Cl)c4)cc32)c(C)c1C(=O)N1CCN(C)CC1 [SU11274 (PKI-SU11274)]
[6]
  Fold resistance: >8 fold
[4]
  IC50: 3.14 µM
[5]
  IC50: > 25 µM
